Results on 5 compounds are retold here after patent US12558312B2, “Solid dosage form for transmucosal drug delivery” (Primo Pharmatech LLC, priority 2020, dated 2026).

Structures can show the parent of a compound that is named as a salt.

A short description of the series: In-vitro permeation testing with a Franz Cell Diffusion System.

Method: In-vitro Permeation testing was performed for the dosage forms in Table 8 with a Franz Cell Diffusion System. The receiving chamber was filled in water solution and stirred with magnetic bar. Fix the PermeaPad® Barrier membrane at the surface. The PermeaPad® Barrier consists of two cellulose membranes and in between there is a Lipid layer Lecithine (S-100). Place the donating chamber onto the receiving chamber and effectively sandwich the membrane. Add 5 mg of the film prepared in Table 8 into the donating chamber and introduce 1 ml of water to dissolve the film. Start the timer for the experiment.
Permeability (P, cm/h), in general within first 8 hours, is defined as the rate of flow of liquid through the membrane.
The similar procedure was performed for the other APIs with a molecule weight ranging from 100 to 6000 g/mol.

Insulin: the “Pemeability (cm/h) via PermeaPad Biomimetic Membrane in vitro” value (“Pemeability” below) (enhancer condition not stated) is “Un-detectable”.
On to `NC(=O)c1ccc[n+]([C@@H]2O[C@H](COP(=O)([O-])O)[C@@H](O)[C@H]2O)c1` [Beta-nicotinamide mononucleotide, NMN, Beta-nicotinamide mononucleotide], for which the “Pemeability” value by setting is: (HLB4.3) 0.23 (HLB4.3), cm/h; (HLB9.4) 0.38 (HLB9.4) cm/h; (no enhancers) 0.23 (No enhancers), cm/h.
On to `CC[C@H](C)[C@H](NC(=O)[C@H](CCC(=O)O)NC(=O)[C@H](CCC(=O)O)NC(=O)[C@H](Cc1ccccc1)NC(=O)[C@H](CC(=O)O)NC(=O)CNC(=O)[C@H](CC(N)=O)NC(=O)CNC(=O)CNC(=O)CNC(=O)CNC(=O)[C@@H]1CCCN1C(=O)[C@H](CCCNC(=N)N)NC(=O)[C@@H]1CCCN1C(=O)[C@H](N)Cc1ccccc1)C(=O)N1CCC[C@H]1C(=O)N[C@@H](CCC(=O)O)C(=O)N[C@@H](CCC(=O)O)C(=O)N[C@@H](Cc1ccc(O)cc1)C(=O)N[C@@H](CC(C)C)C(=O)O` [Bivalirudin Peptide, Bivalirudin], for which the “Pemeability” value (enhancer condition not stated) was “Un-detectable”.
Regarding `Cn1c(=O)c2c(ncn2C)n(C)c1=O` [Caffeine], the “Pemeability” value runs as follows: (HLB9.4) “(HLB15), 7.76 (HLB9.4) cm/h”; (HLB15) 5.01 cm/h; (no enhancers) 0.277 cm/h.
With `CN1CCc2cccc3c2[C@H]1Cc1ccc(O)c(O)c1-3` [Apomorphine HCL], the “Pemeability” value (HLB9.0) is “(HLB15), 2.73 (HLB9.0) cm/h”; the “Pemeability” value (HLB15) was 1.87 cm/h; the “Pemeability” value (no enhancers) is 0.413 cm/h.
